From PubChem BioAssay (NCI) come the findings set out here.

In general, TGI refers to the concentration giving total growth inhibition. A lower TGI goes with greater sensitivity of the cells.

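Each compound was tested at five concentrations against cells in 96-well plates for 48 hours. TGI marks complete inhibition of growth.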

Some test systems named below: 786-0 renal; A549 NSCLC; CCRF-CEM leukemia; DU-145 prostate; HCT-15 colon; HOP-62 NSCLC; HT29 colon; KM12 colon; NCI/ADR-RES ovarian; OVCAR-5 ovarian; SF-295 CNS; SK-MEL-28 melanoma; SK-MEL-5 melanoma; SK-OV-3 ovarian; TK-10 renal; SN12C renal.
Holding throughout (assay): DTP human tumour cell line panel, 48 h

As for `CN1CCN(c2nc3ccccc3nc2C(=O)c2ccc(Cl)cc2)CC1`, the TGI in the assay with 786-0 renal, in the assay with A549 NSCLC, in the assay with CCRF-CEM leukemia, in the assay with DU-145 prostate, with HCT-15 colon and in the assay on HOP-62 NSCLC was > 100 µM throughout. Besides, the TGI in the assay on HT29 colon, with KM12 colon, in the assay with NCI/ADR-RES ovarian, in the assay with OVCAR-5 ovarian, with SF-295 CNS and with SK-MEL-28 melanoma was > 100 µM in each case. Further, the values for the TGI in the assay with SK-MEL-5 melanoma, in the assay on SK-OV-3 ovarian and with TK-10 renal were 52.7 µM, > 100 µM and > 100 µM, respectively.

With `CC(C)C1CC=NN1C(=O)OC(C)(C)C` (centres undefined), the TGI in the assay on 786-0 renal, with A549 NSCLC, in the assay on CCRF-CEM leukemia, in the assay on DU-145 prostate, in the assay on HCT-15 colon and in the assay with HOP-62 NSCLC was > 100 µM throughout. Further, the concentration for total growth inhibition (TGI) in the assay on HT29 colon, in the assay with KM12 colon, in the assay on NCI/ADR-RES ovarian, in the assay on OVCAR-5 ovarian, in the assay on SF-295 CNS and with SK-MEL-5 melanoma was > 100 µM throughout. The concentration for total growth inhibition (TGI) in the assay with SK-OV-3 ovarian, in the assay with SN12C renal and with TK-10 renal was > 100 µM in each case.

Take `Cn1c(=O)n2n(c1=O)Cc1cccc3cccc(c13)C2`: the TGI in the assay on 786-0 renal, in the assay with A549 NSCLC, with CCRF-CEM leukemia, in the assay with DU-145 prostate, with HCT-15 colon and in the assay with HT29 colon was > 100 µM in each case. For the same molecule, the TGI with KM12 colon, in the assay with NCI/ADR-RES ovarian, in the assay on OVCAR-5 ovarian, in the assay with SF-295 CNS, in the assay on SK-MEL-28 melanoma and in the assay on SK-MEL-5 melanoma was > 100 µM in each case. For the same molecule, the TGI in the assay on SK-OV-3 ovarian, in the assay on SN12C renal and with TK-10 renal was > 100 µM throughout.

With `CCCCCCCCCCCCCCCC(=O)ON1C(=S)NC(C)(c2ccccc2)C1=S` (centres undefined), the TGI in the assay on 786-0 renal, in the assay on A549 NSCLC, in the assay with CCRF-CEM leukemia, in the assay on DU-145 prostate, in the assay on HCT-15 colon and in the assay with HOP-62 NSCLC was > 100 µM in each case. The TGI in the assay with HT29 colon, in the assay on KM12 colon, in the assay with NCI/ADR-RES ovarian, with OVCAR-5 ovarian, in the assay with SF-295 CNS and in the assay on SK-MEL-5 melanoma was > 100 µM throughout. Besides, the TGI in the assay on SK-OV-3 ovarian, with SN12C renal and in the assay with TK-10 renal was > 100 µM each time.

`NS(=O)(=O)c1ccc(NC(=O)c2cc([N+](=O)[O-])cc([N+](=O)[O-])c2)cc1`: the TGI in the assay with 786-0 renal, in the assay on A549 NSCLC, with CCRF-CEM leukemia, in the assay with DU-145 prostate, in the assay on HCT-15 colon and in the assay on HOP-62 NSCLC was > 100 µM each time. In addition, the TGI in the assay on HT29 colon, in the assay with KM12 colon, with NCI/ADR-RES ovarian, in the assay on SK-MEL-28 melanoma, in the assay with SK-MEL-5 melanoma and in the assay on SK-OV-3 ovarian was > 100 µM each time. Besides, the values for the total growth inhibition concentration (TGI) with SN12C renal and with TK-10 renal were 90.7 µM and > 100 µM, respectively.

With `COc1ccc(NC(=O)CC(=O)n2nc(C)c(N=Nc3ccc(C)c(C)c3)c2C)cc1`, the TGI in the assay with 786-0 renal, in the assay with A549 NSCLC, in the assay on CCRF-CEM leukemia, with DU-145 prostate, with HOP-62 NSCLC and in the assay with HT29 colon was > 100 µM throughout. In addition, the concentration for total growth inhibition (TGI) with KM12 colon, with NCI/ADR-RES ovarian, with OVCAR-5 ovarian, with SF-295 CNS, in the assay on SK-MEL-28 melanoma and with SK-MEL-5 melanoma was > 100 µM in each case. Besides, the concentration for total growth inhibition (TGI) in the assay on SK-OV-3 ovarian is 27.7 µM; with SN12C renal it was > 100 µM; in the assay with TK-10 renal it was > 100 µM.

Regarding `COC(=O)[C@@H]1C=C[C@@H](C#N)n2c(=O)n(-c3ccccc3)c(=O)n21`, the TGI in the assay with 786-0 renal is 84.7 µM; in the assay with CCRF-CEM leukemia, 51.3 µM; in the assay on DU-145 prostate, > 100 µM; in the assay with HCT-15 colon, > 100 µM; with HOP-62 NSCLC, 56.2 µM; with HT29 colon, 93.2 µM. Besides, the total growth inhibition concentration (TGI) is 73.2 µM in the assay on KM12 colon; 68 µM in the assay with NCI/ADR-RES ovarian; > 100 µM in the assay with OVCAR-5 ovarian; > 100 µM with SF-295 CNS; > 100 µM with SK-MEL-28 melanoma; > 100 µM in the assay on SK-MEL-5 melanoma. Further, the TGI was > 100 µM in the assay with SK-OV-3 ovarian, 95 µM in the assay with SN12C renal and > 100 µM in the assay with TK-10 renal.

Take `CC12CC3CC/C(=N\O)C(C1)C3(N1CCOCC1)C/C2=N/O` (centres undefined): the TGI in the assay on 786-0 renal, with A549 NSCLC, with CCRF-CEM leukemia, in the assay on DU-145 prostate, in the assay on HCT-15 colon and with HOP-62 NSCLC was > 100 µM in each case. In addition, the TGI in the assay with HT29 colon, in the assay with KM12 colon, with NCI/ADR-RES ovarian, in the assay with OVCAR-5 ovarian, in the assay on SF-295 CNS and with SK-MEL-28 melanoma was > 100 µM throughout. Besides, the TGI in the assay on SK-MEL-5 melanoma, in the assay with SK-OV-3 ovarian and in the assay with SN12C renal was > 100 µM throughout.

Turning to `CCOC(=O)c1cccc(NC(=O)CBr)c1`, the TGI in the assay with 786-0 renal was determined as 0.494 µM; in the assay on A549 NSCLC, 3.96 µM; in the assay on DU-145 prostate, 3.39 µM; in the assay with HCT-15 colon it was 3.66 µM; in the assay on HOP-62 NSCLC, 3.41 µM; with HT29 colon it was 3.32 µM. Besides, the concentration for total growth inhibition (TGI) was determined as 3.58 µM in the assay on KM12 colon; 4.39 µM with NCI/ADR-RES ovarian; 3.28 µM with OVCAR-5 ovarian; 14.6 µM in the assay on SF-295 CNS; 7.75 µM in the assay with SK-MEL-28 melanoma; 2.76 µM in the assay with SK-MEL-5 melanoma. For the same molecule, the TGI in the assay with SK-OV-3 ovarian was 3.43 µM; in the assay on SN12C renal it was 0.907 µM; with TK-10 renal, 3.18 µM.
